From patent EP0414894A1 (priority 1989, dated 1990)
Several values for one entry are separate records, joined by “and”; a condition that tells them apart may be missing. Equal entries are not always repeated. Where two headings read alike, the source gives them in different places.

Tests used:
domestic flies [1] = assay: insecticidal activity, full-scale (large-scale) test in premises; format: in vivo; details: 2% solution, 2-3 dishes per 20 m²; 72 hours
Method: The full-scale tests for activity of the insecticidal composition of the invention to domestic flies in habitable and industrial premises were carried out as follows. The Petri dishes containing a 2% solution of the insecticidal composition of the invention were located according 2-3-dishes per 20 m². The composition activity was evaluated by a direct estimation of killed insects in 72 hours or by using an adhesive tape to count the number of flies on its surface prior to and after conducting the test.

[2] = mice and rats; cited from earlier work
Candida albicans [3] = assay: fungicidal activity, laboratory test on Sabouraud medium; format: cell-based; details: 0.01% solution in water
Method: (§1) A fungicidal composition based on this compound was prepared, which was a 0.01% solution of the compound in water. […] For testing it the Petri dishes containing Sabourand growth medium were inoculated by using suspension of microorganisms containing 5x10⁷ cells of fungi in 1 ml.
(§2) The restricted surface areas (7 mm in diameter) were coated with the composition by means of a small metal spatula 4x4 mm in size. In a day of incubating it at 37°C in the thermostat the composition inhibited the growth of yeast-like fungi. An antifungal activity of the composition was specified according to the method of 10-fold serial dilution using Sabourand's liquid medium in 2 ml of which 2x10⁵ cells were introduced.

domestic flies [4] = assay: insecticidal activity, laboratory test in gauze boxes; format: in vivo; details: for Death of flies, % Tests in laboratory: 2% solution in 5% aqueous glucose, observed in 48-72 hours
Method: The compound obtained was used for preparing an insecticidal composition which was a 2% solution of the compound in a 5% aqueous solution of glucose. The test for activity of the insecticidal composition of the invention was conducted on domestic flies. Into gause 10x10 cm boxes /6 boxes/ 6-7-day flies were placed in the number of 50 individuals per box, which were of both sexes. The Petri dishes containing the insecticidal composition of the invention were put into 5 boxes. The observations for fly death were carried out in 48-72 hours. The Petri dish containing a 5% aqueous glucose solution were placed into a control box.

Candida Tropi-calis [5] = assay: fungicidal activity, laboratory test on Sabouraud medium; format: cell-based, Candida tropicalis; details: 0.01% solution in water
Method: as §1, §2

Candida Tropi-calis [6] = assay: fungicidal activity, large-scale test on surfaces of articles; format: cell-based, Candida tropicalis; details: 0.01% solution in water
Method: (§3) The large-scale tests were carried out by using Candida albicans and Candida tropicalis strains, with their 2-day agar culture being diluted with an isotonic sodium chloride solution up to the concentration of 5x10⁷ cells in 1 ml. The culture suspension was laid on the surface (7 mm in diameter) of articles made of ceramics, metal, wood and rubber as well as a cotton, flannel and woollen cloth which were presterilized.
(§4) In a day after incubation from the treated areas washings were taken with a cotton-gauze tampon which was moistened with Sabouraud's liquid medium, then they were immersed into the tubes containing a similar medium, and placed into thermostat at 37°C for 2 days. Thereafter, the inoculum was transfered onto a solified Sabouraud agar, and the values of growth were recorded according to a conventional procedure. The test data of the composition according to the invention over a known composition (zineb) and the control are given in Table 3.

Candida albicans [7] = assay: as above; format: cell-based; details: 0.01% solution in water
Method: as §3, §4

Hepatitis B virus = assay: virulicidal activity, HBsAg titer in blood serum
Excerpt: table ratio instead of the test composition.

pig ascarid eggs = assay: microbe, parasite or virus in culture
Meningopneumonia virus = tested on: Meningopneumonia virus; design: species or system meningopneumonia pathogene/MP strain/
Influenza A viruses = assay: virulicidal activity, virus titer in allantoic fluid by hemagglutination-inhibition
Staphylococcus aureus = assay: microbe, parasite or virus in culture; format: cell-based; details: Staphylococcus aureus, read-out: Death of micro-organisms, % Staphylo-cocus aureus
Escherichia coli = assay: microbe, parasite or virus in culture; format: cell-based; details: Escherichia coli, read-out: Death of micro-organisms, % Escherichia coli
[8] = 24 h, read-out: Death of ascaridal eggs, % after 24 hours
[9] = 48 h, read-out: Death of ascaridal eggs, % after 48 hours

SMILES	Death of flies, % Tests in large-scale (domestic flies [1]) [%]	Growth inhibition of fungal colonies, % Candida albicans Laboratory tests (Candida albicans [3]) [%]	Death of flies, % Tests in laboratory (domestic flies [4]) [%]	Growth inhibition of fungal colonies, % Candida Tropi-calis Laboratory tests (Candida Tropi-calis [5]) [%]	Growth inhibition of fungal colonies, % Candida Tropi-calis Large-scale tests (Candida Tropi-calis [6]) [%]	Growth inhibition of fungal colonies, % Candida albicans Large-scale tests (Candida albicans [7]) [%]	Virulicidal activity (%) under exposure 30 min (Influenza A viruses; concentration 1.0 % by mass) [%]	Virulicidal activity (%) under exposure 30 min (Influenza A viruses; concentration 2.0 % by mass) [%]	also measured
COP(=O)(OC)C(O)C(Cl)(Cl)Cl (stereo not shown) [0,0-dimethyl/1-hydroxy-2,2,2,-trichloroethyl/-phosphonate, reference compound]	88.0	–	–	–	–	–	–	–	LD₅₀ [2]: 225 to 1200 mg/kg
COP(=NC(CO)C(O)c1ccc([N+](=O)[O-])cc1)(OC)OC (stereo not shown) [Example 1, trimethoxyphosphazo-1-para-nitrophenyl-1,3-propandiol]	87.0	100.0	89.1	100.0	100.0	100.0	–	–	–
CCOP(=NC(CO)C(O)c1ccc([N+](=O)[O-])cc1)(OCC)OCC (stereo not shown) [Example 2, triethoxyphosphazo-1-para-nitrophenyl-1,3-propandiol]	83.0	100.0	84.7	100.0	100.0	100.0	–	–	–
CCCOP(=NC(CCl)C(O)c1ccc([N+](=O)[O-])cc1)(OCCC)OCCC (stereo not shown) [Example 5, tri-n-propoxyphosphazo-1-para-nitrophenyl-1-chloro-3-propanol]	93.0	–	94.5	–	–	–	12.5	50.0	Virulicidal activity (%) under exposure 30 min (Hepatitis B virus; concentration 1.0 % by mass): 12.5%; Virulicidal activity (%) under exposure 60 min (Hepatitis B virus; concentration 1.0 % by mass): 50.0%; Virulicidal activity (%) under exposure 30 min (Hepatitis B virus; concentration 2.0 % by mass): 25,0%; Virulicidal activity (%) under exposure 60 min (Hepatitis B virus; concentration 2.0 % by mass): 75,0%; killing at 2 % (pig ascarid eggs; [8]): 100%; killing at 2 % (pig ascarid eggs; [9]): 100%; Virulicidal activity (%) under exposure 60 min (Meningopneumonia virus): 50.0% and 75.0%; Virulicidal activity (%) under exposure 60 min (Influenza A viruses; concentration 1.0 % by mass): 50.0%; Virulicidal activity (%) under exposure 60 min (Influenza A viruses; concentration 2.0 % by mass): 75.0%
COP(=NC(CCl)C(Cl)c1ccc([N+](=O)[O-])cc1)(OC)OC (stereo not shown) [Example 9, trimethoxyphosphazo-1-para-nitrophenyl-1,3-dichloropropane]	83.0	100.0	85.2	100.0	100.0	100.0	–	–	killing at 0.5 % (Staphylococcus aureus): 100%; killing at 0.5 % (Escherichia coli): 100%
CCOP(=NC(CCl)C(Cl)c1ccc([N+](=O)[O-])cc1)(OCC)OCC (stereo not shown) [Example 10, triethoxyphosphazo-1-para-nitrophenyl-1,3-dichloropropane]	88.0	100.0	89.9	100.0	100.0	100.0	–	–	killing at 0.5 % (Staphylococcus aureus): 99.8%; killing at 0.5 % (Escherichia coli): 100%
COP(=NC(CCl)C(O)c1ccc([N+](=O)[O-])cc1)(OC)OC (stereo not shown) [Example 15]	–	100.0	–	100.0	100.0	100.0	–	–	–
CCOP(=NC(CCl)C(O)c1ccc([N+](=O)[O-])cc1)(OCC)OCC (stereo not shown) [Example 16, triethoxy-phosphazo-1-para-nitrophenyl-1-chloro-3-propanol]	–	100.0	–	100.0	100.0	100.0	50.0	98.4	Virulicidal activity (%) under exposure 30 min (Hepatitis B virus; concentration 1.0 % by mass): 50.0%; Virulicidal activity (%) under exposure 60 min (Hepatitis B virus; concentration 1.0 % by mass): 75.0%; Virulicidal activity (%) under exposure 30 min (Hepatitis B virus; concentration 2.0 % by mass): 100,0%; Virulicidal activity (%) under exposure 60 min (Hepatitis B virus; concentration 2.0 % by mass): 100,0%; Virulicidal activity (%) under exposure 30 min (Meningopneumonia virus): 25.0% and 50.0%; Virulicidal activity (%) under exposure 60 min (Meningopneumonia virus): 50.0% and 99.0%; Virulicidal activity (%) under exposure 60 min (Influenza A viruses; concentration 1.0 % by mass): 75.0%; Virulicidal activity (%) under exposure 60 min (Influenza A viruses; concentration 2.0 % by mass): 100.0%
O=C(N[C@H](COP(=N[C@@H](CO)[C@@H](O)c1ccc([N+](=O)[O-])cc1)(OC[C@@H](NC(=O)C(Cl)Cl)[C@H](O)c1ccc([N+](=O)[O-])cc1)OC[C@@H](NC(=O)C(Cl)Cl)[C@H](O)c1ccc([N+](=O)[O-])cc1)[C@H](O)c1ccc([N+](=O)[O-])cc1)C(Cl)Cl [Example 27]	–	–	–	–	–	–	100.0	100.0	Death of flies, % after 48 hours (domestic flies [4]; concentration 2.0 % by mass, after 48 hours): 34.0%; Death of flies, % after 72 hours (domestic flies [4]; concentration 2.0 % by mass, after 72 hours): 62.0%; killing at 2 % (pig ascarid eggs; [8]): 100%; killing at 2 % (pig ascarid eggs; [9]): 100%
